Legend:
[1] = In vivo pharmacokinetic analyses in rat, oral dosing; conditions: serum, PO dosing 5 mg/kg
Method: One rat is dosed orally (5 mg/kg—dissolved in DMSO/H2O/propylenglycol [1:5:4]) and blood samples are taken from the sublingual venous plexus at 30 min, 1 h, 2 h, 4 h and 6 h. Blood samples are taken in BD Vacutainer SST serum separation tubes, serum is isolated by centrifugation, transferred to micronics tubes and subsequently analysed.
Mass spectrometer (API5000 series) parameters are optimised to analyse for the specific compounds and test injections are performed to confirm the validity of the established generic chromatography method. The generic method is based on fast gradient (2.5 min) analysis on C18 column with mobile phases consisting methanol, ammonium acetate, formic acid and water.
Standards are prepared in rat serum to cover the analytical range 0.1 to 300 ng/ml. Standards, blank serum and study samples are applied to 96 deepwell plate and proteins are precipitated by addition of acetonitrile containing internal standard. Samples are analysed on LC-MS/MS usually overnight. Integration and quantification is performed on ration between analyte and internal standard using Analyst software version 1.5. Pharmacokinetic parameters are calculated using a standardised Excel spreadsheet.
In vivo pharmacokinetic profile in rat of compound 101 disclosed in WO 2008/104175 and compound 105 and 106 disclosed in examples 5 and 6, respectively: […]

[2] = target: Human recombinant PDE4 (Genbank accession no NM_006203) (Homo sapiens (Human), UniProt Q08499); test: PDE4 Assay (SPA, cAMP cleavage); type: biochemical; conditions: human recombinant PDE4, 1 hour incubation, cAMP 1x10-5 M
Method: At the end of the incubation, the cleavage of the substrate was evaluated by the binding of the AMP product to SPA beads, which generate chemoluminescence when bound to the radioactive tracer. The AMP product inhibited the binding of the radioactive tracer to the beads, and the luminescent signal was competed.
The results were calculated as the molar concentrations resulting in 50% inhibition of the substrate cleavage compared to controls samples, and are expressed as IC50 (M).

Sequence of Human recombinant PDE4 (Genbank accession no NM_006203) (Q08499 other isoform, or with tags, fused parts or gaps): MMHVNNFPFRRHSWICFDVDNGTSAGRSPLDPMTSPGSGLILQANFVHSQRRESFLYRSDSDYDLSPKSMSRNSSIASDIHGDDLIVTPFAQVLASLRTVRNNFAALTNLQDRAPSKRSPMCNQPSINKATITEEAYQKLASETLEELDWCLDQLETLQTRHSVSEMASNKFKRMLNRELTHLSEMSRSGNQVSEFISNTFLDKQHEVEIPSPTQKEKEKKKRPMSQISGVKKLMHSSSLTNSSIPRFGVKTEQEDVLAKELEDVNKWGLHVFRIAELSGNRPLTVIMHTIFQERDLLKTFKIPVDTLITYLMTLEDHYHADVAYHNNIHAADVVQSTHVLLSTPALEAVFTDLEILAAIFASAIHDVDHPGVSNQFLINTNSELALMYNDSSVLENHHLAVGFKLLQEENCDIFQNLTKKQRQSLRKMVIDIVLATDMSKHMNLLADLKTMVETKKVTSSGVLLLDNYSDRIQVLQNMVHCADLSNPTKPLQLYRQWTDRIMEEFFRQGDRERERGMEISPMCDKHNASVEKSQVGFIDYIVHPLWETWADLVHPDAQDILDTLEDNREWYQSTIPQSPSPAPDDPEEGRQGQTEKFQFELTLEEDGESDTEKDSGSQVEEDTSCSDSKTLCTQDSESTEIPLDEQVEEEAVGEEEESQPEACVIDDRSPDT

Row | bioavailability [1] [%] | IC50 [2] [nM] | Compound
1 | 22 |  | O=C(Cc1c(Cl)c[n+]([O-])cc1Cl)c1ccc(OC(F)F)c2c1OC1(CCOCC1)O2 [compound 106, 2-(3,5-Dichloro-1-oxido-pyridine-4-yl)-1-(7-difluoromethoxy-2′,3′,5′,6′-tetrahydro-spiro[1,3-benzodioxole-2,4′-(4H)-pyran]-4-yl)ethanone]
2 |  | 106 | O=C(Nc1c(Cl)c[n+](O)cc1Cl)c1ccc(OC(F)F)c2c1OC1(CCS(=O)(=O)CC1)O2 [compound 111, N-(3,5-dichloro-1-oxo-4-pyridyl)-7-(difluoromethoxy)-1′,1′-dioxo-spiro[1,3-benzodioxole-2,4′-thiane]-4-carboxamide]

Reference: patent US9637499B2, “Benzodioxole or benzodioxepine heterocyclic compounds as phosphodiesterase inhibitors” (LEO PHARMA A/S, priority 2010, dated 2017)
